Experiments:
Assay type in all cases: in vivo
[1] = test system: slender amaranth (Amaranthus viridis L.); assay: Test Example 2: herbicidal effect by soil application to upland field; conditions: soil surface spray, upland field soil, 1,000 g active ingredient per hectare, 21st day after application
Summary of the method: (§1)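 In this soil-application test, sown and soil-covered pots are sprayed uniformly with the formulation diluted in water, giving 1,000 g of active ingredient per ha in a volume of 1,000 L per ha. Plants then grow in a greenhouse for 21 days before herbicidal scoring by a standard scale.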

[2] = test system: green foxtail (Setaria viridis (L.) P. Beauv.); assay: as above; conditions: soil surface spray, upland field soil, 1,000 g active ingredient per hectare, 21st day after application
Summary of the method: as §1

[3] = test system: velvetleaf (Abutilon theophrasti medicus); assay: as above; conditions: soil surface spray, upland field soil, 1,000 g active ingredient per hectare, 21st day after application
Summary of the method: as §1

[4] = test system: barnyardgrass (Echinochloa crus-galli (L.) P. Beauv. var. crus-galli); assay: as above; conditions: soil surface spray, upland field soil, 1,000 g active ingredient per hectare, 21st day after application
Summary of the method: as §1

[5] = test system: early watergrass (Echinochloa oryzicola Vasing); assay: Test Example 1: herbicidal effect by soil application to paddy field; conditions: paddy field soil application; active ingredient 1,000 g per 1 hectare; wettable powder added dropwise to water surface the day after sowing; examined on the 21st day after application
Summary of the method: (§2)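 Under greenhouse conditions, seeds sown on puddled paddy soil in 100 cm2 pots under 3 cm of standing water received the test compound; injury was assessed with a standard scoring scheme three weeks (day 21) after treatment.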

[6] = test system: heartshape false pickerelweed (Monochoria vaginalis (Burm.f.) C.Presl); assay: as above; conditions: paddy field soil application; active ingredient 1,000 g per 1 hectare; wettable powder added dropwise to water surface the day after sowing; examined on the 21st day after application
Summary of the method: as §2

[7] = test system: Japanese bulrush (Scirpus juncoides Roxb.); assay: as above; conditions: paddy field soil application; active ingredient 1,000 g per 1 hectare; wettable powder added dropwise to water surface the day after sowing; examined on the 21st day after application
Summary of the method: as §2

[8] = test system: slender amaranth (Amaranthus viridis L.); assay: Test Example 3: herbicidal effect by application to upland field (foliage treatment); conditions: foliage treatment, plants grown two weeks, 1,000 g active ingredient per hectare, 14th day after application
Summary of the method: (§3)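 Read-out is a visual herbicidal-effect grade on a standard scale, taken on the 14th day after a single foliar spray. The spray was wettable powder diluted in water, 1,000 g active ingredient/ha at 1,000 L/ha, applied to greenhouse plants two weeks after sowing.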

[9] = test system: green foxtail (Setaria viridis (L.) P. Beauv.); assay: as above; conditions: foliage treatment, plants grown two weeks, 1,000 g active ingredient per hectare, 14th day after application
Summary of the method: as §3

[10] = test system: velvetleaf (Abutilon theophrasti medicus); assay: as above; conditions: foliage treatment, plants grown two weeks, 1,000 g active ingredient per hectare, 14th day after application
Summary of the method: as §3

[11] = test system: barnyardgrass (Echinochloa crus-galli (L.) P. Beauv. var. crus-galli); assay: as above; conditions: foliage treatment, plants grown two weeks, 1,000 g active ingredient per hectare, 14th day after application
Summary of the method: as §3

Row | SMILES | herbicidal effect (index), Slender Amaranth [1] | herbicidal effect (index), Green Foxtail [2] | herbicidal effect (index), Velvetleaf [3] | herbicidal effect (index), Barnyardgrass [4] | herbicidal effect, Echinochloa oryzicola Vasing [5] | herbicidal effect, Monochoria vaginalis (Burm. f.) C. Presl [6] | herbicidal effect, Scirpus juncoides Roxb. [7] | herbicidal effect (index), Slender Amaranth [8] | herbicidal effect (index), Green Foxtail [9] | herbicidal effect (index), Velvetleaf [10] | herbicidal effect (index), Barnyardgrass [11]
1 | O=C1CCCC(O)=C1C(=O)c1ccc(C(F)(F)F)n(-c2ccc(OC(F)(F)F)cc2)c1=O [I-79] | 5 (90% or more of herbicidal effect and crop phytotoxicity) | 5 (90% or more of herbicidal effect and crop phytotoxicity) | 5 (90% or more of herbicidal effect and crop phytotoxicity) | 5 (90% or more of herbicidal effect and crop phytotoxicity) | 5 (90% or more of herbicidal effect and crop phytotoxicity) | 5 (90% or more of herbicidal effect and crop phytotoxicity) | 5 (90% or more of herbicidal effect and crop phytotoxicity) | 5 (90% or more of herbicidal effect and crop phytotoxicity) | 5 (90% or more of herbicidal effect and crop phytotoxicity) | 5 (90% or more of herbicidal effect and crop phytotoxicity) | 5 (90% or more of herbicidal effect and crop phytotoxicity)
2 | CSc1cccc(-n2c(C(F)(F)F)ccc(C(=O)C3=C(O)CCCC3=O)c2=O)c1 [I-80] | 5 (90% or more of herbicidal effect and crop phytotoxicity) | 5 (90% or more of herbicidal effect and crop phytotoxicity) | 5 (90% or more of herbicidal effect and crop phytotoxicity) | 5 (90% or more of herbicidal effect and crop phytotoxicity) | 5 (90% or more of herbicidal effect and crop phytotoxicity) | 5 (90% or more of herbicidal effect and crop phytotoxicity) | 5 (90% or more of herbicidal effect and crop phytotoxicity) | 5 (90% or more of herbicidal effect and crop phytotoxicity) | 5 (90% or more of herbicidal effect and crop phytotoxicity) | 5 (90% or more of herbicidal effect and crop phytotoxicity) | 5 (90% or more of herbicidal effect and crop phytotoxicity)
3 | C[S+]([O-])c1cccc(-n2c(C(F)(F)F)ccc(C(=O)C3=C(O)CCCC3=O)c2=O)c1 (stereo not shown) [I-81] | 5 (90% or more of herbicidal effect and crop phytotoxicity) | 5 (90% or more of herbicidal effect and crop phytotoxicity) | 5 (90% or more of herbicidal effect and crop phytotoxicity) | 5 (90% or more of herbicidal effect and crop phytotoxicity) | 5 (90% or more of herbicidal effect and crop phytotoxicity) | 5 (90% or more of herbicidal effect and crop phytotoxicity) | 5 (90% or more of herbicidal effect and crop phytotoxicity) | 5 (90% or more of herbicidal effect and crop phytotoxicity) | 5 (90% or more of herbicidal effect and crop phytotoxicity) | 5 (90% or more of herbicidal effect and crop phytotoxicity) | 5 (90% or more of herbicidal effect and crop phytotoxicity)
4 | CS(=O)(=O)c1cccc(-n2c(C(F)(F)F)ccc(C(=O)C3=C(O)CCCC3=O)c2=O)c1 [I-82] | 5 (90% or more of herbicidal effect and crop phytotoxicity) | 5 (90% or more of herbicidal effect and crop phytotoxicity) | 5 (90% or more of herbicidal effect and crop phytotoxicity) | 5 (90% or more of herbicidal effect and crop phytotoxicity) | 5 (90% or more of herbicidal effect and crop phytotoxicity) | 5 (90% or more of herbicidal effect and crop phytotoxicity) | 5 (90% or more of herbicidal effect and crop phytotoxicity) | 5 (90% or more of herbicidal effect and crop phytotoxicity) | 5 (90% or more of herbicidal effect and crop phytotoxicity) | 5 (90% or more of herbicidal effect and crop phytotoxicity) | 5 (90% or more of herbicidal effect and crop phytotoxicity)
5 | CS(=O)(=O)c1ccc(-n2c(C(F)(F)F)ccc(C(=O)C3=C(O)CCCC3=O)c2=O)cc1 [I-83] | 5 (90% or more of herbicidal effect and crop phytotoxicity) | 5 (90% or more of herbicidal effect and crop phytotoxicity) | 5 (90% or more of herbicidal effect and crop phytotoxicity) | 5 (90% or more of herbicidal effect and crop phytotoxicity) | 5 (90% or more of herbicidal effect and crop phytotoxicity) | 5 (90% or more of herbicidal effect and crop phytotoxicity) | 5 (90% or more of herbicidal effect and crop phytotoxicity) | 5 (90% or more of herbicidal effect and crop phytotoxicity) | 5 (90% or more of herbicidal effect and crop phytotoxicity) | 5 (90% or more of herbicidal effect and crop phytotoxicity) | 5 (90% or more of herbicidal effect and crop phytotoxicity)
6 | O=C1CCCC(O)=C1C(=O)c1ccc(C(F)(F)F)n(-c2cccc(C(F)(F)F)c2)c1=O [I-85] | 5 (90% or more of herbicidal effect and crop phytotoxicity) | 5 (90% or more of herbicidal effect and crop phytotoxicity) | 5 (90% or more of herbicidal effect and crop phytotoxicity) | 5 (90% or more of herbicidal effect and crop phytotoxicity) | 5 (90% or more of herbicidal effect and crop phytotoxicity) | 5 (90% or more of herbicidal effect and crop phytotoxicity) | 5 (90% or more of herbicidal effect and crop phytotoxicity) | 5 (90% or more of herbicidal effect and crop phytotoxicity) | 5 (90% or more of herbicidal effect and crop phytotoxicity) | 5 (90% or more of herbicidal effect and crop phytotoxicity) | 5 (90% or more of herbicidal effect and crop phytotoxicity)
7 | O=C1CCCC(O)=C1C(=O)c1ccc(C(F)(F)F)n(-c2ccc(C(F)(F)F)cc2)c1=O [I-86] | 5 (90% or more of herbicidal effect and crop phytotoxicity) | 5 (90% or more of herbicidal effect and crop phytotoxicity) | 5 (90% or more of herbicidal effect and crop phytotoxicity) | 5 (90% or more of herbicidal effect and crop phytotoxicity) | 5 (90% or more of herbicidal effect and crop phytotoxicity) | 5 (90% or more of herbicidal effect and crop phytotoxicity) | 5 (90% or more of herbicidal effect and crop phytotoxicity) | 5 (90% or more of herbicidal effect and crop phytotoxicity) | 5 (90% or more of herbicidal effect and crop phytotoxicity) | 5 (90% or more of herbicidal effect and crop phytotoxicity) | 5 (90% or more of herbicidal effect and crop phytotoxicity)
8 | O=C1CCCC(O)=C1C(=O)c1ccc(C(F)(F)F)n(-c2cccc([N+](=O)[O-])c2)c1=O [I-87] | 5 (90% or more of herbicidal effect and crop phytotoxicity) | 5 (90% or more of herbicidal effect and crop phytotoxicity) | 5 (90% or more of herbicidal effect and crop phytotoxicity) | 5 (90% or more of herbicidal effect and crop phytotoxicity) | 5 (90% or more of herbicidal effect and crop phytotoxicity) | 5 (90% or more of herbicidal effect and crop phytotoxicity) | 5 (90% or more of herbicidal effect and crop phytotoxicity) | 5 (90% or more of herbicidal effect and crop phytotoxicity) | 5 (90% or more of herbicidal effect and crop phytotoxicity) | 5 (90% or more of herbicidal effect and crop phytotoxicity) | 5 (90% or more of herbicidal effect and crop phytotoxicity)

From patent publication US8076487B2, “Pyridone derivative and herbicide” (Kumiai Chemical Industry Co., Ltd., priority 2006, dated 2011)
